Counter-ions that a name gives are not always drawn. Like-named read-outs stand apart in the source and are kept apart here.
Assays:
human CYP1A2 = biological target: T1, human CYP1A2 (Homo sapiens, UniProt P05177)
T1 sequence (P05177 1-516): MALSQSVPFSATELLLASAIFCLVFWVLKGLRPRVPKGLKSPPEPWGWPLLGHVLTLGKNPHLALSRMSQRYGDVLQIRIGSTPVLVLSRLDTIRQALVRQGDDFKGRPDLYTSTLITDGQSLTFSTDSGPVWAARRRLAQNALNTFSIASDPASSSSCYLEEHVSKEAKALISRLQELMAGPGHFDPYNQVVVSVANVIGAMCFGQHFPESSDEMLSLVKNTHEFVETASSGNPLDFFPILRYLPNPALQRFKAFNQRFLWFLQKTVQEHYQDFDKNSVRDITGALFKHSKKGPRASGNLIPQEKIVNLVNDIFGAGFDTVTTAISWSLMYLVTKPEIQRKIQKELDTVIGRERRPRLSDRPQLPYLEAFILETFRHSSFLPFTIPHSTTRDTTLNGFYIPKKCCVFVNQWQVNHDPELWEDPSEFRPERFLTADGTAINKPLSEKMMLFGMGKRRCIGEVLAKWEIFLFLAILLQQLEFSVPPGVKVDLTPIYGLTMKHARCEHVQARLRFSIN

human CYP2D6 = human CYP2D6 (Homo sapiens, UniProt P10635)
human CYP2D6, sequence (P10635 whole entry): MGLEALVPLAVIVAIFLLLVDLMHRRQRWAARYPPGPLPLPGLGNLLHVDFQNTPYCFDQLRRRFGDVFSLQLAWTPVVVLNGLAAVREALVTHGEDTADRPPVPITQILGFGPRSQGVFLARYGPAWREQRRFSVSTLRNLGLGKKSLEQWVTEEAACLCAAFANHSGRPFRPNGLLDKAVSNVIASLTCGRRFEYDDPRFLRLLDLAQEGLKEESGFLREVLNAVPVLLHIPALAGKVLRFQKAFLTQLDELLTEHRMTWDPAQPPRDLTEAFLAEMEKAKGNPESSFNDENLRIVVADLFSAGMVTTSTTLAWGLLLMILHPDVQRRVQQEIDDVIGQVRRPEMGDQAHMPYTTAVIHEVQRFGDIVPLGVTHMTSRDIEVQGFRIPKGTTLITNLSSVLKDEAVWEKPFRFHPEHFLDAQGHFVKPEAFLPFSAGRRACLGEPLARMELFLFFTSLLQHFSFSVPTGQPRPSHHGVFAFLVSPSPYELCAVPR

human CYP2C9 = human CYP2C9 (Homo sapiens, UniProt P11712); experiment: biochemical
human CYP2C9, sequence (P11712 whole entry): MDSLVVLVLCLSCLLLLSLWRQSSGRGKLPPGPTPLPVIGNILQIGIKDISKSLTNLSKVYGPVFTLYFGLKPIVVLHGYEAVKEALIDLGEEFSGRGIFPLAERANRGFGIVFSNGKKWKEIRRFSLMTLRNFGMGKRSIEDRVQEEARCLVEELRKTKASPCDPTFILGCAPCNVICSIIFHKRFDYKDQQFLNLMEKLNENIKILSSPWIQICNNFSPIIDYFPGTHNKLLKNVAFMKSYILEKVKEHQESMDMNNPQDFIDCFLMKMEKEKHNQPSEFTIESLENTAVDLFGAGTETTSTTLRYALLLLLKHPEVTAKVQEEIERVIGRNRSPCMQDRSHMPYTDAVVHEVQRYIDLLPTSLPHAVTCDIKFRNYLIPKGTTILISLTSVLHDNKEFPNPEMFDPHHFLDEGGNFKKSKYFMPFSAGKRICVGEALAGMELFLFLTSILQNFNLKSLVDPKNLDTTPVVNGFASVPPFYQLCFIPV

human CYP2C19 [1] = biological target: T2, human CYP2C19 (Homo sapiens, UniProt P33261); experiment: biochemical
T2 sequence (P33261 whole entry): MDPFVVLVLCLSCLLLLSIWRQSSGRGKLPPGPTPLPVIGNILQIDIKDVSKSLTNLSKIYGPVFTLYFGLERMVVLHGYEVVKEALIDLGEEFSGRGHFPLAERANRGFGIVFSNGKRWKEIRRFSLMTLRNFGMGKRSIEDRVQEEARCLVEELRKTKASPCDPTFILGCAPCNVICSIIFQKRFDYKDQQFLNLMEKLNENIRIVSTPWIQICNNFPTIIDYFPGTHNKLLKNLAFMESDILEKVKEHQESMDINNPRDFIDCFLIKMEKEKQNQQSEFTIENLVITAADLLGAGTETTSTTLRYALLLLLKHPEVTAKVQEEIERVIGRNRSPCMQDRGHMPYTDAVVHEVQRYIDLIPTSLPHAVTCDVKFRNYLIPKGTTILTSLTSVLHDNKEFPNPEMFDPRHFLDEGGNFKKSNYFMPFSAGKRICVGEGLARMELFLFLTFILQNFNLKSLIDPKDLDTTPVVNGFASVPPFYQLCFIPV

CYP3A4 = CYP3A4 (Homo sapiens, UniProt P08684); experiment: biochemical
CYP3A4, sequence (P08684 whole entry): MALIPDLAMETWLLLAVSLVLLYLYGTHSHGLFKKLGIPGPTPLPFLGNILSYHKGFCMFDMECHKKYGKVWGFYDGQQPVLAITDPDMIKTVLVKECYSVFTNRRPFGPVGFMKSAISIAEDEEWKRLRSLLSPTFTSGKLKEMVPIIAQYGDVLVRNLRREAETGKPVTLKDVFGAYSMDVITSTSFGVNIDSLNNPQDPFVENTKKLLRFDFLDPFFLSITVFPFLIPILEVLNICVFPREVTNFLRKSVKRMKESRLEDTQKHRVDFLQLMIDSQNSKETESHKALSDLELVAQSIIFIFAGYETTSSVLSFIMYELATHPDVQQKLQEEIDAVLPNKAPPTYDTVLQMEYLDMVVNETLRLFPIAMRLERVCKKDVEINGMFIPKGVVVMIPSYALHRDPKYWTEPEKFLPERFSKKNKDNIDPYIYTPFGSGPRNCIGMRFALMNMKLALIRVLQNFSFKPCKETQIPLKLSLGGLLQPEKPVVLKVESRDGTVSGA

human CYP2C19 [2] = biological target: T2, human CYP2C19
[3] = CYP2C9 AC50 (half-maximal activity concentration)
[4] = CYP2C19 AC50 (half-maximal activity concentration)
[5] = CYP3A4 AC50 (half-maximal activity concentration)

SMILES | CYP1A2 AC50 (half-maximal activity concentration) (human CYP1A2) | CYP2D6 AC50 (half-maximal activity concentration) (human CYP2D6) | AC50 (human CYP2C9; [3]) | AC50 (human CYP2C19 [1]; [4]) | AC50 (CYP3A4; [5]) | CYP2C19 AC50 (half-maximal activity concentration) (human CYP2C19 [2]) | AC50 (human CYP2C9) | AC50 (CYP3A4) | AC50 (human CYP2C19 [1])
CCCCCCCCOc1ccc(C(=O)c2ccccc2)c(O)c1 [Octabenzone] | Inconclusive inhibitor | Inactive | 13.8 µM | 53.3 µM | 26.2 µM |  |  |  | 
O=C(O)Cc1cc(I)c(Oc2cc(I)c(O)c(I)c2)c(I)c1 [Tetrac] | Inactive | Inactive |  |  |  | Inactive | 46.5 µM | 9.83 µM | 
CC(=O)O[C@H]1CC[C@@]2(C)C(=CC[C@@H]3[C@@H]2CC[C@]2(C)C(=O)CC[C@@H]32)C1 [Dehydroepiandrosterone acetate] | Inconclusive inhibitor | Inactive | 28.4 µM | 28.4 µM | 6.03 µM |  |  |  | 
C[C@]12CCC(=O)C=C1C=C[C@@H]1[C@@H]2CC[C@@]2(C)[C@H]1CC[C@@]21CCC(=O)O1 [Canrenone] | Inconclusive inhibitor | Inactive | 32.2 µM | 1.67 µM | 3.48 µM |  |  |  | 
O=C(O)C(c1ccc(Cl)cc1)c1ccc(Cl)cc1 [p,p'-DDA] | Inactive | Inactive | 15.4 µM | 24.5 µM | 68.4 µM |  |  |  | 
CCOCN(C(=O)CCl)c1c(C)cccc1CC [Acetochlor] | Inconclusive inhibitor | Inactive | 31.2 µM | 9.51 µM | 8.35 µM |  |  |  | 
Cc1cccc(Nc2ccccc2C(=O)O)c1C [Mefenamic acid] | Inconclusive inhibitor | Inactive | 33 µM |  | 73.9 µM | Inconclusive inhibitor |  |  | 
COC(=O)C(C)N(C(=O)Cc1ccccc1)c1c(C)cccc1C (centres unmarked) [Benalaxyl] | Inactive | Inconclusive inhibitor | 22.6 µM | 5.23 µM | 4.54 µM |  |  |  | 
CC(=O)OCC(=O)[C@H]1CC[C@H]2[C@@H]3CCC4=CC(=O)CC[C@]4(C)[C@H]3CC[C@]12C [Deoxycorticosterone acetate] | Inactive | Inconclusive inhibitor | 5.67 µM | 8.43 µM | 4.07 µM |  |  |  | 
O=C1OC2(c3ccccc31)c1ccc(O)c(Br)c1Oc1c2ccc(O)c1Br [4',5'-Dibromofluorescein] | Inconclusive inhibitor | Inactive |  |  |  |  | 46.2 µM | 27.2 µM | 53.7 µM
NNS(=O)(=O)c1ccc(Oc2ccc(S(=O)(=O)NN)cc2)cc1 [4,4'-Oxybis(benzenesulfonhydrazide)] | Inactive | Inconclusive inhibitor |  |  |  |  | 6 µM | 7.84 µM | 16.8 µM
N#Cc1cc(Br)c(O)c(Br)c1 [Bromoxynil] | Inactive | Inactive | 18.7 µM |  | 29.6 µM | Inactive |  |  | 
Clc1ccccc1-c1ccccc1Cl [2,2'-Dichlorobiphenyl] | Inconclusive inhibitor | Inactive | 39 µM |  | 14.6 µM | Inconclusive activator |  |  | 
O=C(O)c1cc(Cl)cc(Cl)c1O [3,5-Dichlorosalicylic acid] | Inconclusive inhibitor | Inactive |  |  |  | Inactive | 28.3 µM | 37 µM | 
O=S(=O)(c1ccccc1)c1ccccc1 [Diphenylsulfone] | Inactive | Inactive | 7.39 µM | 41.1 µM | 28.4 µM |  |  |  | 
O=C(O)c1ccccc1C(c1ccc(O)cc1)c1ccc(O)cc1 [Phenolphthalin] | Inconclusive inhibitor | Inactive | 56.6 µM |  | 30.1 µM | Inactive |  |  | 
C[C@@H]1O[C@@H](O[C@@H]2C=C3CC[C@@H]4[C@H](CC[C@]5(C)[C@@H](c6ccc(=O)oc6)CC[C@]45O)[C@@]3(C)CC2)[C@H](O)[C@H](O)[C@H]1O [Proscillaridin] | Inactive | Inactive |  |  | 33.4 µM | Inconclusive activator |  |  | 
O=C(NC(=O)c1c(F)cccc1F)Nc1ccc(Oc2ccc(C(F)(F)F)cc2Cl)cc1F [Flufenoxuron] | Inactive | Inactive | 17.8 µM |  | 18.6 µM | Inconclusive |  |  | 
Cc1ccc(S(=O)(=O)NCl)cc1 [Chloramine-T trihydrate] | Inconclusive inhibitor | Inactive | 81.6 µM |  | 67.9 µM | Inconclusive inhibitor |  |  | 
CCCCCCCCCCOS(=O)(=O)O [Sodium decyl sulfate] | Inactive | Inconclusive inhibitor |  |  |  | Inactive | 38.5 µM | 85.8 µM | 
CC(C)COC(=O)CCCCC(=O)OCC(C)C [Diisobutyl adipate] | Inconclusive inhibitor | Inactive |  |  |  | Inactive | 38 µM | 11.7 µM | 
Cc1c(C(=O)NN2CCCCC2)nn(-c2ccc(Cl)cc2Cl)c1-c1ccc(Cl)cc1 [Rimonabant] | Inactive |  |  |  |  |  |  | 4.96 ± 0.93 µM | 
CCC(=O)Oc1ccc(/C(CC)=C(\CC)c2ccc(OC(=O)CC)cc2)cc1 [Diethylstilbestrol dipropionate] | Inactive | Inactive | 21.2 µM |  | 22.9 µM | Inactive |  |  | 
CC(Oc1cc(Cl)c(Cl)cc1Cl)C(=O)O (centres unmarked) [2-(2,4,5-Trichlorophenoxy)propionic acid] | Inactive | Inactive | 28.4 µM |  | 76.9 µM | Inactive |  |  | 
CC(=O)OCC(=O)[C@@]12N=C(C)O[C@@H]1C[C@H]1[C@@H]3CCC4=CC(=O)C=C[C@]4(C)[C@H]3[C@@H](O)C[C@@]12C [Deflazacort] | Inactive | Inactive | 60.9 µM |  | 13.2 µM | Inactive |  |  | 
CN(C(=O)C(Cl)Cl)c1ccc(OC(=O)c2ccco2)cc1 [Diloxanide furoate] | Inactive | Inconclusive | 15.5 µM |  | 25.3 µM | Inconclusive inhibitor |  |  | 
C[C@]12C=CC(=O)C=C1CC[C@@H]1[C@@H]2CC[C@@]2(C)[C@H]1CC[C@]2(C)O [Methandrostenolone] | Inactive | Inactive | 34.7 µM |  | 2.65 µM | Inactive |  |  | 
Cc1ccc(Cl)c(Nc2ccccc2C(=O)O)c1Cl [Meclofenamate sodium] | Inactive | Inconclusive inhibitor | 24.2 µM |  | 38.9 µM | Inactive |  |  | 
O=C(O)C(F)(F)C(F)(F)C(F)(F)C(F)(F)C(F)(F)C(F)(F)F [Perfluoroheptanoic acid] | Inactive | Inactive | 6.33 µM |  | 65.8 µM | Inactive |  |  | 
CC(=O)OCC(=O)[C@@]1(OC(C)=O)[C@@H](C)C[C@H]2[C@@H]3C[C@H](F)C4=CC(=O)C=C[C@]4(C)[C@@]3(F)[C@@H](O)C[C@@]21C [Diflorasone diacetate] | Inactive | Inactive | 19 µM |  | 4.74 µM | Inconclusive activator |  |  | 
